Test results published in PMC7762498, “Demethoxycurcumin analogue DMC-BH exhibits potent anticancer effects on orthotopic glioblastomas” (Aging (Albany NY), 2020).

Key:
U87 cell line = assay: Subcutaneous human glioma xenograft in SCID mice; format: in vivo
Text: To examine the anti-glioma effects of DMC-BH in vivo, a human glioma-SCID (severe combined immunodeficient) mouse model was established using the U87 cell line. […] The tumor volumes for the control, TMZ, DMC, and DMC-BH mice at day 21 were 1514 mm^3, 587 mm^3, 876 mm^3 and 570 mm^3, respectively. […] As shown in the Kaplan-Meier curves, the median survival was 15, 27, 19 and 35 days for the control, TMZ, DMC and DMC-BH groups, respectively (Figure 3B).
Figure 3 DMC-BH inhibited U87 glioma cell growth in vivo. Subcutaneous tumors generated from U87 cells were allowed to reach a volume of 150-200 mm^3 and were treated with 20 mg/kg TMZ, DMC or DMC-BH for 21 days. (A) Tumor volume was recorded according to treatment group at the indicated day. (B) The survival of brain tumor-bearing mice was recorded and represented in a Kaplan-Meier plot.
1-[4-Hydroxy-3-(pyrrolidin-1-ylmethyl) phenyl]-7-(4-hydroxy-3-methoxyphenyl) hepta-1,6-diene-3,5-dione, named DMC-BH, was constructed by our lab. DMC was obtained from Sigma-Aldrich (St. Louis, MO). To test the anti-glioma effect of DMC-BH in vivo, a xenograft model of human glioma was established. Four-week-old male SCID mice were purchased from Vital River Laboratory Animal Technology Co., Ltd. (Beijing, China). After a 1-week acclimatization, SCID mice were injected subcutaneously in the right flank with 6 × 10^5 […] glioma cells resuspended in 50 μL DMEM media. Treatment was initiated when the subcutaneous tumors reached an average size of 150 mm^3 to 200 mm^3. Mice received intraperitoneal injection of DMC (20 mg/kg/day), DMC-BH (20 mg/kg/day), TMZ (20 mg/kg/day) or vehicle as a control. Tumor diameter was measured every 2 days with calipers, and the tumor volume was calculated (length × width × height × 0.5). All experiments were carried out in keeping with the procedures and protocols of the Animal Ethics Committee of the First People's Hospital of Kunshan.

[1] = test system: glioblastoma multiforme (GBM) patient derived tumors; assay: Patient-derived tumor xenograft (PDTX) model; format: in vivo, mice; details: B-NDG mice; DMC-BH 7.5, 15 or 30 mg/kg, TMZ 20 mg/kg
Text: In recent years, PDTX models have been used to mimic human tumors. These models are more clinically relevant than cell line-based xenograft models. Thus, we performed an in vivo study in a PDTX tumor model by implanting human glioma samples from a patient donor into B-NDG mice (Figure 7A).
Figure 7 In vivo anti-tumor activity of DMC-BH in the PDTX tumor model. (A) A scheme illustrating the process of creating the patient-derived tumor model. (B) Tumor growth curves of mice after treatment with 7.5 mg/kg, 15 mg/kg or 30 mg/kg DMC-BH or 20 mg/kg TMZ. (C) Average tumor weight at day 21 after different treatments. (D) Quantification of the Ki67-positive area in different treatment groups. (E) Representative H&E-stained tumor slices and Ki67 immunofluorescence labeled tumor tissue sections from different treatments groups. The data are shown as mean ± SD (n = 6).
Surgically resected human glioma tissue was obtained from a cancer patient (#0407002) following an approved Nanjing Medicinal University Institutional Review Board protocol. Within 2 hours of surgical resection, tumor tissues were cut into 1-2 mm fragments and implanted into SCID mice (B-NDG, 6 weeks old, female) using a surgical procedure approved by Nanjing Medicinal University Institutional Animal Care and Use committee. After surgery, tumor growth in the mice was monitored by palpating the abdomen twice per week. Tumors grew to 5-10 mm in diameter in about 8-10 weeks. The SCID mice bearing PDTX tumors were sacrificed, and tumor fragments of 1 to 2 mm in size were implanted into 6-week-old female SCID mice. Over 60% of the mice experienced tumor growth in approximately 6 weeks.

`Cn1nnc2c(C(N)=O)ncn2c1=O` [TMZ, temozolomide] was tested, and the “tumor volume at day 21” value (U87 cell line; U87 subcutaneous xenograft, 20 mg/kg/day intraperitoneal, 21 days, control 1514 mm^3) was 587 mm^3, the median survival (U87 cell line; U87 xenograft, 20 mg/kg, control 15 days) was 27 days and the “tumor growth in PDTX model” value [1] was “significant tumor regression”.
